#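 Tested at 5 concentrations; 48 h exposure; 96-well plates; endpoints linearly interpolated, else capped at highest concentration. Here, GI50 denotes the concentration required for 50% inhibition of growth.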 Calls of active or inactive are those of the source. No stated cut-off is given here; in the data, active = GI50 up to about 1.1 µM and inactive = higher.
# Columns and labels:
# Test in all cases: NCI anticancer screen, dose series, 48 h
# A498 = test system: A498
# A549 = test system: A549
# CCRF-CEM = test system: CCRF-CEM
# COLO 205 = test system: COLO 205
# HCC 2998 = test system: HCC 2998
# HL-60 = test system: HL-60
# MDA-MB-231 = test system: MDA-MB-231
# MDA-N = test system: MDA-N
# OVCAR-4 = test system: OVCAR-4
# PC-3 = test system: PC-3
# SF-268 = test system: SF-268
# SNB-19 = test system: SNB-19
# SR = test system: SR
# T47D = test system: T47D
# HCT-116 = test system: HCT-116
# RPMI-8226 = test system: RPMI-8226
# BT-549 = test system: BT-549
# DU-145 = test system: DU-145
# Hs-578T = test system: Hs-578T
Structure (SMILES),GI50 (A498),GI50 (A549),GI50 (CCRF-CEM),GI50 (COLO 205),GI50 (HCC 2998),GI50 (HL-60),GI50 (MDA-MB-231),GI50 (MDA-N),GI50 (OVCAR-4),GI50 (PC-3),GI50 (SF-268),GI50 (SNB-19),GI50 (SR),GI50 (T47D),GI50 (HCT-116),GI50 (RPMI-8226),GI50 (BT-549),GI50 (DU-145),GI50 (Hs-578T)
C=Cc1cc2c(cc1O)CC[C@@H]1[C@@H]2CC[C@]2(C)[C@@H](O)CC[C@@H]12,24.4 µM (inactive),5.78 µM (inactive),4.15 µM (inactive),15.4 µM (inactive),11.2 µM (inactive),2.67 µM (inactive),5.33 µM (inactive),1.45 µM (inactive),11.2 µM (inactive),11.6 µM (inactive),4.16 µM (inactive),4.23 µM (inactive),1.97 µM (inactive),8.79 µM (inactive),,,,,
CN1C(=O)CN2C(Cl)(Cl)C2(c2ccccc2)c2cc(Cl)ccc21 (stereo unspecified),,,53.7 µM (inactive),> 100 µM (inactive),65.3 µM (inactive),,,,> 100 µM (inactive),,> 100 µM (inactive),,> 10 µM (inactive),,65.3 µM (inactive),> 100 µM (inactive),,,
Cc1c(N2C(=O)CS(=O)(=O)C2c2cccc(Oc3ccccc3)c2)c(=O)n(-c2ccccc2)n1C (stereo unspecified),< 0.01 µM (active),71.8 µM (inactive),45.9 µM (inactive),28 µM (inactive),,14.1 µM (inactive),> 100 µM (inactive),24.8 µM (inactive),14.6 µM (inactive),43.3 µM (inactive),59.3 µM (inactive),> 100 µM (inactive),,29 µM (inactive),26.7 µM (inactive),27.2 µM (inactive),29.5 µM (inactive),71.6 µM (inactive),30.9 µM (inactive)
Clc1ccc(CCc2ccncn2)c(Cl)c1,86.5 µM (inactive),> 100 µM (inactive),,64.9 µM (inactive),> 100 µM (inactive),30.1 µM (inactive),,,> 100 µM (inactive),,77.3 µM (inactive),35.6 µM (inactive),,,52.5 µM (inactive),25.5 µM (inactive),,,
O=c1cnn(CCOCP(=O)(O)O)c(=O)[nH]1,> 100 µM (inactive),> 100 µM (inactive),> 100 µM (inactive),> 100 µM (inactive),> 100 µM (inactive),,> 100 µM (inactive),> 100 µM (inactive),,> 100 µM (inactive),> 100 µM (inactive),> 100 µM (inactive),,> 100 µM (inactive),,> 100 µM (inactive),> 100 µM (inactive),> 100 µM (inactive),> 100 µM (inactive)
CC(=O)OCC1=C(COC(C)=O)C(=O)c2c(O)ccc(O)c2C1=O,18.4 µM (inactive),17.4 µM (inactive),2.45 µM (inactive),2.38 µM (inactive),15.9 µM (inactive),1.49 µM (inactive),,,10.8 µM (inactive),,13.8 µM (inactive),,5.47 µM (inactive),,12.1 µM (inactive),3.2 µM (inactive),,,
CCN(CC)CCNCc1cc(Cl)cc2c1OCOC2,> 10 µM (inactive),> 10 µM (inactive),> 10 µM (inactive),> 10 µM (inactive),> 10 µM (inactive),> 10 µM (inactive),> 10 µM (inactive),> 10 µM (inactive),> 10 µM (inactive),> 10 µM (inactive),> 10 µM (inactive),> 10 µM (inactive),> 10 µM (inactive),> 10 µM (inactive),> 10 µM (inactive),> 10 µM (inactive),,> 10 µM (inactive),> 10 µM (inactive)
CCCO[C@@H]1[C@@H](OC(C)=O)[C@@H](OC(C)=O)C(C)(C)/C=C/[C@H](C)C(=O)[C@@]2(OC(C)=O)C[C@@](C)(OC(C)=O)[C@H](OC(C)=O)[C@@H]2[C@H]2OC(=O)CC[C@@]12OC(=O)c1ccccc1,,,4.85 µM (inactive),6.97 µM (inactive),18.5 µM (inactive),2.64 µM (inactive),> 25 µM (inactive),14.9 µM (inactive),> 25 µM (inactive),20.4 µM (inactive),> 25 µM (inactive),> 25 µM (inactive),,> 25 µM (inactive),6.97 µM (inactive),,22.9 µM (inactive),> 25 µM (inactive),12.1 µM (inactive)
CCn1cc(C(c2ccc(Cl)cc2)n2ccnc2)c2cc(Br)ccc21 (stereo unspecified),13.4 µM (inactive),10.4 µM (inactive),,11.6 µM (inactive),13.2 µM (inactive),,14.8 µM (inactive),20.1 µM (inactive),9.64 µM (inactive),9.55 µM (inactive),11.2 µM (inactive),14.3 µM (inactive),4.35 µM (inactive),,16.1 µM (inactive),3.48 µM (inactive),14.8 µM (inactive),16.6 µM (inactive),18.7 µM (inactive)
O=C(Nc1nc2ncn(CCNCc3ccccc3)c2c(=O)[nH]1)c1ccccc1,> 100 µM (inactive),> 100 µM (inactive),> 100 µM (inactive),> 100 µM (inactive),> 100 µM (inactive),> 100 µM (inactive),,,> 100 µM (inactive),,63.8 µM (inactive),,> 100 µM (inactive),,> 100 µM (inactive),65.3 µM (inactive),,,
CCC(=O)NC(OCC1(CC)COC1)(C(F)(F)F)C(F)(F)F,> 100 µM (inactive),,> 100 µM (inactive),,> 100 µM (inactive),> 100 µM (inactive),> 100 µM (inactive),> 100 µM (inactive),,,> 100 µM (inactive),> 100 µM (inactive),> 100 µM (inactive),> 100 µM (inactive),> 100 µM (inactive),> 100 µM (inactive),> 100 µM (inactive),> 100 µM (inactive),> 100 µM (inactive)
NC(=S)N/N=C1\C(=O)Nc2c(Cl)cc(Cl)cc21,32.4 µM (inactive),31.3 µM (inactive),23.5 µM (inactive),20.2 µM (inactive),34.5 µM (inactive),12.4 µM (inactive),22.9 µM (inactive),17.4 µM (inactive),34 µM (inactive),17.8 µM (inactive),,31.3 µM (inactive),16.3 µM (inactive),,17.9 µM (inactive),,21 µM (inactive),,24 µM (inactive)
C1#Cc2ccccc2OCCOc2ccccc2C#Cc2ccccc2OCCOc2ccccc21,17.3 µM (inactive),25.2 µM (inactive),18 µM (inactive),30.1 µM (inactive),,61.2 µM (inactive),17.7 µM (inactive),> 100 µM (inactive),10.9 µM (inactive),52 µM (inactive),19.7 µM (inactive),25.9 µM (inactive),,49.5 µM (inactive),32.7 µM (inactive),16.4 µM (inactive),16.6 µM (inactive),> 100 µM (inactive),22.5 µM (inactive)
CC1=NN(C(=O)c2ccc(Cl)cc2)C(=O)C1/N=N/c1ccc(S(=O)(=O)Nc2ncccn2)cc1 (stereo unspecified),,> 100 µM (inactive),,> 100 µM (inactive),,> 100 µM (inactive),> 100 µM (inactive),,> 100 µM (inactive),0.217 µM (active),> 100 µM (inactive),> 100 µM (inactive),> 100 µM (inactive),> 100 µM (inactive),> 100 µM (inactive),,> 100 µM (inactive),> 100 µM (inactive),> 100 µM (inactive)
